Laboratory results from US20260232767A1, “INTERLEUKIN-23 RECEPTOR ANTAGONIST PEPTIDES FOR USE IN THE TREATMENT OF PSORIASIS” (Janssen Pharmaceutica NV, priority 2023, published 2026).

Tested on: subjects with moderate-to-severe plaque psoriasis
Assay: Suicidal ideation or behavior (Columbia-Suicide Severity Rating Scale)
[1] = Combined (all regimens), Week 16-56
[2] = Placebo → 100 mg QD, Week 16-56
[3] = Placebo → 100 mg QD, through Week 56

Experimental: Adverse events were reported and followed by the investigator. Any clinically relevant changes occurring during the study were recorded. Any clinically significant abnormalities persisting at the end of the study/early withdrawal were followed by the investigator until resolution or until a clinically stable condition was reached if possible. The evaluations of safety and tolerability include: physical examinations, vital signs, electrocardiograms, clinical safety laboratory assessments, review of concomitant medication, pregnancy testing, suicidal ideation evaluation via the Columbia—Suicide Severity Rating Scale, and tuberculosis evaluation.

CC(=O)NCCCC[C@@H]1NC(=O)[C@H](Cc2c[nH]c3c(C)cccc23)NC(=O)[C@H]([C@@H](C)O)NC(=O)[C@H](CC(N)=O)NC(=O)[C@@H](NC(C)=O)C(C)(C)SSC(C)(C)[C@@H](C(=O)N[C@@H](Cc2ccc(OCCN)cc2)C(=O)N[C@@H](Cc2ccc3ccccc3c2)C(=O)NC2(C(=O)N[C@@H](CCC(=O)O)C(=O)N[C@@H](CC(N)=O)C(=O)N[C@@H](Cc3cccnc3)C(=O)N(C)CC(N)=O)CCOCC2)NC1=O [IL-23 receptor antagonist peptide, Ac-[Pen]*-N-T-[W(7-Me)]-[Lys(Ac)]-[Pen]*-Phe[4-(2-aminoethoxy)]-[2-Nal]-[THP]-E-N-[3-Pal]-Sarc-NH2 (*[Pen]-[Pen]* formdisulfidebond)]
0: Subjects with 1 - Wish to be dead (25 mg BID, Week 16-56) | Subjects with 2 - Non-specific active suicidal thoughts (25 mg BID, Week 16-56) | Subjects with 3 - Active suicidal ideation with any methods (not plan) without intent to act (25 mg BID, Week 16-56) | Subjects with 4 - Active suicidal ideation with some intent to act, without specific plan (25 mg BID, Week 16-56) | Subjects with 5 - Active suicidal ideation with specific plan and intent (25 mg BID, Week 16-56) | Subjects with 6 - Preparatory acts or behavior (25 mg BID, Week 16-56) | Subjects with 7 - Aborted attempt (25 mg BID, Week 16-56) | Subjects with 8 - Interrupted attempt (25 mg BID, Week 16-56) | Subjects with 9 - Non-fatal suicide attempt (25 mg BID, Week 16-56) | Subjects with 10 - Completed suicide (25 mg BID, Week 16-56) | Subjects with suicidal behavior (25 mg BID, Week 16-56) | Subjects with suicidal ideation (25 mg BID, Week 16-56) | Subjects with suicidal ideation or behavior (25 mg BID, Week 16-56) | Subjects with 1 - Wish to be dead (25 mg BID, through Week 56) | Subjects with 2 - Non-specific active suicidal thoughts (25 mg BID, through Week 56) | Subjects with 3 - Active suicidal ideation with any methods (not plan) without intent to act (25 mg BID, through Week 56) | Subjects with 4 - Active suicidal ideation with some intent to act, without specific plan (25 mg BID, through Week 56) | Subjects with 5 - Active suicidal ideation with specific plan and intent (25 mg BID, through Week 56) | Subjects with 6 - Preparatory acts or behavior (25 mg BID, through Week 56) | Subjects with 7 - Aborted attempt (25 mg BID, through Week 56) | Subjects with 8 - Interrupted attempt (25 mg BID, through Week 56) | Subjects with 9 - Non-fatal suicide attempt (25 mg BID, through Week 56) | Subjects with 10 - Completed suicide (25 mg BID, through Week 56) | Subjects with suicidal behavior (25 mg BID, through Week 56) | Subjects with suicidal ideation (25 mg BID, through Week 56) | Subjects with suicidal ideation or behavior (25 mg BID, through Week 56) | Subjects with 1 - Wish to be dead (25 mg QD, through Week 56) | Subjects with 2 - Non-specific active suicidal thoughts (25 mg QD, through Week 56) | Subjects with 3 - Active suicidal ideation with any methods (not plan) without intent to act (25 mg QD, through Week 56) | Subjects with 4 - Active suicidal ideation with some intent to act, without specific plan (25 mg QD, through Week 56) | Subjects with 5 - Active suicidal ideation with specific plan and intent (25 mg QD, through Week 56) | Subjects with 6 - Preparatory acts or behavior (25 mg QD, through Week 56) | Subjects with 7 - Aborted attempt (25 mg QD, through Week 56) | Subjects with 8 - Interrupted attempt (25 mg QD, through Week 56) | Subjects with 9 - Non-fatal suicide attempt (25 mg QD, through Week 56) | Subjects with 10 - Completed suicide (25 mg QD, through Week 56) | Subjects with suicidal behavior (25 mg QD, through Week 56) | Subjects with suicidal ideation (25 mg QD, through Week 56) | Subjects with suicidal ideation or behavior (25 mg QD, through Week 56) | Subjects with 1 - Wish to be dead (25 mg QD, Week 16-56) | Subjects with 2 - Non-specific active suicidal thoughts (25 mg QD, Week 16-56) | Subjects with 3 - Active suicidal ideation with any methods (not plan) without intent to act (25 mg QD, Week 16-56) | Subjects with 4 - Active suicidal ideation with some intent to act, without specific plan (25 mg QD, Week 16-56) | Subjects with 5 - Active suicidal ideation with specific plan and intent (25 mg QD, Week 16-56) | Subjects with 6 - Preparatory acts or behavior (25 mg QD, Week 16-56) | Subjects with 7 - Aborted attempt (25 mg QD, Week 16-56) | Subjects with 8 - Interrupted attempt (25 mg QD, Week 16-56) | Subjects with 9 - Non-fatal suicide attempt (25 mg QD, Week 16-56) | Subjects with 10 - Completed suicide (25 mg QD, Week 16-56) | Subjects with suicidal behavior (25 mg QD, Week 16-56) | Subjects with suicidal ideation (25 mg QD, Week 16-56) | Subjects with suicidal ideation or behavior (25 mg QD, Week 16-56) | Subjects with 1 - Wish to be dead (50 mg QD, Week 16-56) | Subjects with 2 - Non-specific active suicidal thoughts (50 mg QD, Week 16-56) | Subjects with 3 - Active suicidal ideation with any methods (not plan) without intent to act (50 mg QD, Week 16-56) | Subjects with 4 - Active suicidal ideation with some intent to act, without specific plan (50 mg QD, Week 16-56) | Subjects with 5 - Active suicidal ideation with specific plan and intent (50 mg QD, Week 16-56) | Subjects with 6 - Preparatory acts or behavior (50 mg QD, Week 16-56) | Subjects with 7 - Aborted attempt (50 mg QD, Week 16-56) | Subjects with 8 - Interrupted attempt (50 mg QD, Week 16-56) | Subjects with 9 - Non-fatal suicide attempt (50 mg QD, Week 16-56) | Subjects with 10 - Completed suicide (50 mg QD, Week 16-56) | Subjects with suicidal behavior (50 mg QD, Week 16-56) | Subjects with suicidal ideation (50 mg QD, Week 16-56) | Subjects with suicidal ideation or behavior (50 mg QD, Week 16-56) | Subjects with 1 - Wish to be dead (50 mg QD, through Week 56) | Subjects with 2 - Non-specific active suicidal thoughts (50 mg QD, through Week 56) | Subjects with 3 - Active suicidal ideation with any methods (not plan) without intent to act (50 mg QD, through Week 56) | Subjects with 4 - Active suicidal ideation with some intent to act, without specific plan (50 mg QD, through Week 56) | Subjects with 5 - Active suicidal ideation with specific plan and intent (50 mg QD, through Week 56) | Subjects with 6 - Preparatory acts or behavior (50 mg QD, through Week 56) | Subjects with 7 - Aborted attempt (50 mg QD, through Week 56) | Subjects with 8 - Interrupted attempt (50 mg QD, through Week 56) | Subjects with 9 - Non-fatal suicide attempt (50 mg QD, through Week 56) | Subjects with 10 - Completed suicide (50 mg QD, through Week 56) | Subjects with suicidal behavior (50 mg QD, through Week 56) | Subjects with suicidal ideation (50 mg QD, through Week 56) | Subjects with suicidal ideation or behavior (50 mg QD, through Week 56) | Subjects with 1 - Wish to be dead (100 mg BID, Week 16-56) | Subjects with 2 - Non-specific active suicidal thoughts (100 mg BID, Week 16-56) | Subjects with 3 - Active suicidal ideation with any methods (not plan) without intent to act (100 mg BID, Week 16-56) | Subjects with 4 - Active suicidal ideation with some intent to act, without specific plan (100 mg BID, Week 16-56) | Subjects with 5 - Active suicidal ideation with specific plan and intent (100 mg BID, Week 16-56) | Subjects with 6 - Preparatory acts or behavior (100 mg BID, Week 16-56) | Subjects with 7 - Aborted attempt (100 mg BID, Week 16-56) | Subjects with 8 - Interrupted attempt (100 mg BID, Week 16-56) | Subjects with 9 - Non-fatal suicide attempt (100 mg BID, Week 16-56) | Subjects with 10 - Completed suicide (100 mg BID, Week 16-56) | Subjects with suicidal behavior (100 mg BID, Week 16-56) | Subjects with suicidal ideation (100 mg BID, Week 16-56) | Subjects with suicidal ideation or behavior (100 mg BID, Week 16-56) | Subjects with 1 - Wish to be dead (100 mg BID, through Week 56) | Subjects with 2 - Non-specific active suicidal thoughts (100 mg BID, through Week 56) | Subjects with 3 - Active suicidal ideation with any methods (not plan) without intent to act (100 mg BID, through Week 56) | Subjects with 4 - Active suicidal ideation with some intent to act, without specific plan (100 mg BID, through Week 56) | Subjects with 5 - Active suicidal ideation with specific plan and intent (100 mg BID, through Week 56) | Subjects with 6 - Preparatory acts or behavior (100 mg BID, through Week 56) | Subjects with 7 - Aborted attempt (100 mg BID, through Week 56) | Subjects with 8 - Interrupted attempt (100 mg BID, through Week 56) | Subjects with 9 - Non-fatal suicide attempt (100 mg BID, through Week 56) | Subjects with 10 - Completed suicide (100 mg BID, through Week 56) | Subjects with suicidal behavior (100 mg BID, through Week 56) | Subjects with suicidal ideation (100 mg BID, through Week 56) | Subjects with suicidal ideation or behavior (100 mg BID, through Week 56) | Subjects with 1 - Wish to be dead (100 mg QD, Week 16-56) | Subjects with 2 - Non-specific active suicidal thoughts (100 mg QD, Week 16-56) | Subjects with 3 - Active suicidal ideation with any methods (not plan) without intent to act (100 mg QD, Week 16-56) | Subjects with 4 - Active suicidal ideation with some intent to act, without specific plan (100 mg QD, Week 16-56) | Subjects with 5 - Active suicidal ideation with specific plan and intent (100 mg QD, Week 16-56) | Subjects with 6 - Preparatory acts or behavior (100 mg QD, Week 16-56) | Subjects with 7 - Aborted attempt (100 mg QD, Week 16-56) | Subjects with 8 - Interrupted attempt (100 mg QD, Week 16-56) | Subjects with 9 - Non-fatal suicide attempt (100 mg QD, Week 16-56) | Subjects with 10 - Completed suicide (100 mg QD, Week 16-56) | Subjects with suicidal behavior (100 mg QD, Week 16-56) | Subjects with suicidal ideation (100 mg QD, Week 16-56) | Subjects with 1 - Wish to be dead (100 mg QD, through Week 56) | Subjects with 2 - Non-specific active suicidal thoughts (100 mg QD, through Week 56) | Subjects with 3 - Active suicidal ideation with any methods (not plan) without intent to act (100 mg QD, through Week 56) | Subjects with 4 - Active suicidal ideation with some intent to act, without specific plan (100 mg QD, through Week 56) | Subjects with 5 - Active suicidal ideation with specific plan and intent (100 mg QD, through Week 56) | Subjects with 6 - Preparatory acts or behavior (100 mg QD, through Week 56) | Subjects with 7 - Aborted attempt (100 mg QD, through Week 56) | Subjects with 8 - Interrupted attempt (100 mg QD, through Week 56) | Subjects with 10 - Completed suicide (100 mg QD, through Week 56) | Subjects with suicidal ideation (100 mg QD, through Week 56) | Subjects with 1 - Wish to be dead [1] | Subjects with 2 - Non-specific active suicidal thoughts [1] | Subjects with 3 - Active suicidal ideation with any methods (not plan) without intent to act [1] | Subjects with 4 - Active suicidal ideation with some intent to act, without specific plan [1] | Subjects with 5 - Active suicidal ideation with specific plan and intent [1] | Subjects with 6 - Preparatory acts or behavior [1] | Subjects with 7 - Aborted attempt [1] | Subjects with 8 - Interrupted attempt [1] | Subjects with 9 - Non-fatal suicide attempt [1] | Subjects with 10 - Completed suicide [1] | Subjects with suicidal behavior [1] | Subjects with suicidal ideation [1] | Subjects with 1 - Wish to be dead (Combined, through Week 56) | Subjects with 2 - Non-specific active suicidal thoughts (Combined, through Week 56) | Subjects with 3 - Active suicidal ideation with any methods (not plan) without intent to act (Combined, through Week 56) | Subjects with 4 - Active suicidal ideation with some intent to act, without specific plan (Combined, through Week 56) | Subjects with 5 - Active suicidal ideation with specific plan and intent (Combined, through Week 56) | Subjects with 6 - Preparatory acts or behavior (Combined, through Week 56) | Subjects with 7 - Aborted attempt (Combined, through Week 56) | Subjects with 8 - Interrupted attempt (Combined, through Week 56) | Subjects with 10 - Completed suicide (Combined, through Week 56) | Subjects with suicidal ideation (Combined, through Week 56) | Subjects with 1 - Wish to be dead [2] | Subjects with 2 - Non-specific active suicidal thoughts [2] | Subjects with 3 - Active suicidal ideation with any methods (not plan) without intent to act [2] | Subjects with 4 - Active suicidal ideation with some intent to act, without specific plan [2] | Subjects with 5 - Active suicidal ideation with specific plan and intent [2] | Subjects with 6 - Preparatory acts or behavior [2] | Subjects with 7 - Aborted attempt [2] | Subjects with 8 - Interrupted attempt [2] | Subjects with 9 - Non-fatal suicide attempt [2] | Subjects with 10 - Completed suicide [2] | Subjects with suicidal behavior [2] | Subjects with suicidal ideation [2] | Subjects with suicidal ideation or behavior [2] | Subjects with 1 - Wish to be dead [3] | Subjects with 2 - Non-specific active suicidal thoughts [3] | Subjects with 3 - Active suicidal ideation with any methods (not plan) without intent to act [3] | Subjects with 4 - Active suicidal ideation with some intent to act, without specific plan [3] | Subjects with 5 - Active suicidal ideation with specific plan and intent [3] | Subjects with 6 - Preparatory acts or behavior [3] | Subjects with 7 - Aborted attempt [3] | Subjects with 8 - Interrupted attempt [3] | Subjects with 9 - Non-fatal suicide attempt [3] | Subjects with 10 - Completed suicide [3] | Subjects with suicidal behavior [3] | Subjects with suicidal ideation [3] | Subjects with suicidal ideation or behavior [3]
